The values below come from BindingDB's records for patent US10626094 (Sanford Burnham Prebys Medical Discovery Institute, 2020).

In this test the target is T1, Low molecular weight phosphotyrosine protein phosphatase (Homo sapiens, UniProt P24666).
T1 sequence (P24666 whole entry): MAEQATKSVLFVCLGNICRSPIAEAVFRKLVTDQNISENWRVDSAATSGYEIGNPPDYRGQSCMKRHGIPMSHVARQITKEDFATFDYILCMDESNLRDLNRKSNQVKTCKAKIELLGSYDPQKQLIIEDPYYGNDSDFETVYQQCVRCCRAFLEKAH
In words: LMPTP Primary Screening Protocol. On the procedure:
1. Prepare Reagents as described in section F. Recipe.2. Using LabCyte Echo, transfer 60 nL from 2 mM test compound source plate into assay plate Col. 5-48 (final concentration of test compounds is 20 μM). 60 nL of DMSO should be transferred to col. 1-4 for positive and negative control wells.3. Spin plates at 1000 rpm for 1 minute in centrifuge.4. Using the Beckman Coulter Bioraptr, add 3 μL/well of control buffer to columns 1 and 2.5. Using the Bioraptr, add 3 μL/well of enzyme solution to col. […] Using the Bioraptr, add 3 μL/well of substrate solution to col. 1-48.7. Spin plates at 1000 rpm for 1 minute in centrifuge.8. Incubate plates in the dark at room temperature for 50 minutes.9. Read plates on PerkinElmer Viewlux using a FI protocol.
As a reminder, the IC50 is the concentration at which inhibition is half-maximal. Compound `O=C(c1ccc(-c2cc(NCCCC3CCCNC3)c3ccccc3n2)cc1)N1CCCC1` (stereo not given) [4-{4-[(3-piperidylpropyl)amino](2-quinolyl)}phenyl pyrrolidinyl ketone] gave an IC50 of 0.802 to 5 µM.
As for `c1ccc(-c2cc(NCCN3CCOCC3)c3ccccc3n2)cc1` [(2-morpholin-4-ylethyl)(2-phenyl(4-quinolyl))amine], the figure is 0.802 to 5 µM; as for `CC(C)NC(=O)c1ccc(-c2cc(NCCCC3CCCNC3)c3ccccc3n2)cc1` (stereo not given) [N-(methylethyl)(4-{4-[(3-piperidylpropyl)amino](2-quinolyl)}phenyl)carboxamide], 0.802 to 5 µM.
Next, `CCN1CCN(Cc2ccc(NC3CC(c4ccc(OC)cc4)Nc4ccccc43)cc2)CC1` (stereo not given) [US10626094, Example I206]: 0.802 to 5 µM; `Clc1cccc(Cl)c1-c1cc(NCCCC2CCCNC2)c2ccccc2n1` (stereo not given) [US11220486, Compound I100]: greater than 5 µM.
